For this assay, the target named is T1, Amine oxidase [copper-containing] 3 (Homo sapiens, UniProt Q16853).
T1 sequence (Q16853 whole entry): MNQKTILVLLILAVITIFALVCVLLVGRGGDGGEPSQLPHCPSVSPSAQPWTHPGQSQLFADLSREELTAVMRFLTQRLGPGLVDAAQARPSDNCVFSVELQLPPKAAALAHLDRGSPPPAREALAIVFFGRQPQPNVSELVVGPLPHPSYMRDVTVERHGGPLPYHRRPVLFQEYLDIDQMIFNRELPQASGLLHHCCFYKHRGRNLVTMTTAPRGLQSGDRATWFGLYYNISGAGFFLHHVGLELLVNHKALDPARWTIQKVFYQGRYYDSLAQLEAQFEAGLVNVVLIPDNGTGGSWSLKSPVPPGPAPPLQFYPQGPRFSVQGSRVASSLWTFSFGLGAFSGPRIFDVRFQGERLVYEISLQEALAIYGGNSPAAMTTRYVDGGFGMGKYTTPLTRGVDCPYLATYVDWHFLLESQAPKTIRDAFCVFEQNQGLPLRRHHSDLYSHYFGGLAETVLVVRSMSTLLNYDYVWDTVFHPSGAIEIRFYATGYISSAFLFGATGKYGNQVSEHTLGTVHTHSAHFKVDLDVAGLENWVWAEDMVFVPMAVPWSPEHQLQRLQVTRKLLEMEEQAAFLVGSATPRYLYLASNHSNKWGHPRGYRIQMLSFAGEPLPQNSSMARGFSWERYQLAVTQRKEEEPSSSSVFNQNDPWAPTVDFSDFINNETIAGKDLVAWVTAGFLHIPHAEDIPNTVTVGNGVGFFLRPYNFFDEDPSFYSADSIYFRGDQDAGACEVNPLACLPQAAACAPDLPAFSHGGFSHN
Description: Biological Assay: 1. Determination of Inhibitory Activity of Human Recombinant SSAO/VAP-1Test purpose: The following methods can be used to determine the inhibitory activity of the compounds described in the examples of the invention for human recombinant SSAO/VAP-1.Test Materials:Human recombinant SSAO/VAP-1 (VAP-1, human) purchased from Sigma, Cat. No. SRP6241;Amplex® Red Monoamine Oxidase Assay Kit purchased from Invitrogen, Cat. No. A12214;384-Well plate purchased from Corning, Cat. No. 6005174;Amplex® Red Hydrogen PeroxidePeroxidase Assay Kit purchased from Invitrogen, Cat. No. A22188.Benzylamine hydrochloride purchased from Sigma, Cat. No. B5136-25G;DMSO (Dimethyl Sulfoxide) purchased from Sigma, Cat. No. D2650-100ML;Test Method:The test compound was dissolved in DMSO and diluted to 10 concentrations in 4-fold serial dilution. In 384 well plates, 25 μL of human recombinant SSAO/VAP-1 (1.6 μg/ml) was added to each well. 100 nL of test compounds with different concentrations were added to each well containing human recombinant SSAO/VAP-1 and incubated at room temperature for 30 min. After 30 min incubation, 25 μl of Amplex® red monoamine oxidase assay kit (containing a reaction mixture of 200 μm Amplex Red reagent, 1 U/ml HRP and 1 mm benzylamine hydrochloride) was added to the corresponding well, and incubated at room temperature and dark for 60 min. After 60 min, the relative fluorescence unit (RFU) was read by using PerkinElmer's Envision at 530-560 nm excitation and 590 nm emission. The curve was drawn by using the graph pad prism 5 software, and the IC50 value was calculated. The results were shown in table 1, wherein the compound listed in table 1 is the compound in the preparation examples with the same compound number:

The values below come from ChEMBL document CHEMBL5729211, “Amine compound for inhibiting SSAO/VAP-1 and use thereof” (2022).

What is called IC50 is the midpoint of a concentration-inhibition curve.

For `NC/C(=C/F)COc1ccc2c(c1)CCN(c1ccccn1)C2=O`, the half-inhibitory concentration (IC50) is 0.77 nM.
In the case of `NC/C(=C\F)COc1ccc2c(c1)CCN(CC1CCOCC1)C2=O`, the IC50 is 0.22 nM.
Then `COc1ncc(N2CCc3cc(OC/C(=C/F)CN)ccc3C2=O)cn1`, with 1.44 nM.
